Patent publication US8722868B2, “Glycosyltransferase, novel glycosyltransferase gene, and novel sugar donor compound” (National University Corporation Tokyo University of …, priority 2009, dated 2014)

Biological target: T1, delphinium-derived glycosyltransferase (SEQ ID NO: 3), recombinant (Delphinium grandiflorum, UniProt E3W9M3)
T1 construct: made in house; host or cells: Escherichia coli JM109 (crude lysate supernatant)
T1 sequence (E3W9M3 29-505 limits assumed): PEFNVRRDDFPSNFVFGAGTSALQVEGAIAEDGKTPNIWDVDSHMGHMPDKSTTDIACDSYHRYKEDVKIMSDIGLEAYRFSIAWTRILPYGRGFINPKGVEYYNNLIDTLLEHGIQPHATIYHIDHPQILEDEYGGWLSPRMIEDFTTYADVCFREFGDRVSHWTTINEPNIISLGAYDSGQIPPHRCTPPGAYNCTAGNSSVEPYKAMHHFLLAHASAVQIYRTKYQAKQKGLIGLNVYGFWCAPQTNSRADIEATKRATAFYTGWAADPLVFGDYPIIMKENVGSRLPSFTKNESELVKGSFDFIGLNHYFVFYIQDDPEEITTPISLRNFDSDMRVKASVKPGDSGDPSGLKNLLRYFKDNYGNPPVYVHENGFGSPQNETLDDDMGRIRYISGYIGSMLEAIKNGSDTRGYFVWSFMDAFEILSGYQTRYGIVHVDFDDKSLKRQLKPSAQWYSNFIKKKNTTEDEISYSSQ
Assay: Glycosyl transfer reaction with delphinium-derived glycosyltransferase gene expressed in Escherichia coli
Format: biochemical, delphinium (Delphinium grandiflorum L.)
Conditions: recombinant enzyme from E. coli, cyanidin 3-O-β-glucoside as sugar receptor
Method: PCR was performed using a sense primer (“ATGCCCGAATTTAATGTCAG” (SEQ ID NO: 19)) designed so as to add a methionine residue for the initiation of translation to a sequence from which 28 amino acid residues at the N-terminus predicted as corresponding to vacuolar transfer signals of DgVA7GT had been removed and an antisense primer (“CTG TGA AGA GTA CGA TAT C” (SEQ ID NO: 20)) designed so as to lack a stop codon. The PCR product was ligated to a pTrcHis2-TOPO vector (Invitrogen) using a pTrcHis2-TOPO TA expression Kit (Invitrogen), followed by transformation of the Escherichia coli JM109 strain. DNA was extracted from the transformed Escherichia coli and the DNA nucleotide sequence was analyzed in the above manner. Accordingly, the direction of cDNA introduction and the nonoccurrence of a PCR-induced nucleotide substitution were confirmed.
The transformed Escherichia coli was seeded on an LB medium containing […] ampicillin (5 ml), followed by shake culture at 30° C. for 4 hours. Then, IPTG was added thereto to result in 1 mM, followed by shake culture at 16° C. for 2 hours. The cultured Escherichia coli was harvested via centrifugation at 1,800×g. The medium was removed therefrom. A 0.1 M citric acid buffer (pH 5.6) (150 μl) was added thereto, followed by sufficient mixing. […]

SMILES | Sugar donor function with recombinant delphinium-derived glycosyltransferase (reaction product)
O=C(OC1OC(CO)C(O)C(O)C1O)c1ccc(O)cc1 (stereo not drawn) [1-O-β-p-hydroxybenzoyl glucose] | cyanidin 3,7-diglucoside formed as a result of transfer of glucose to a hydroxyl group at the 7 position of cyanidin 3-glucoside
COc1cc(C(=O)OC2OC(CO)C(O)C(O)C2O)ccc1O (centres unmarked) | capable of transferring glucose to the 7 position of the anthocyanin skeleton using vanillyl glucose as a sugar donor
